By IC50 is commonly meant the point on the concentration scale where inhibition reaches its midpoint. Lower therefore signals greater potency in that assay.

The first test deals with T1, STING in THP1 cells (HAQ allele) (Homo sapiens, UniProt Q86WV6, G230A/H232R/R293Q/R71H).
T1 construct: host or cells: THP-1 dual reporter cells
T1 sequence (Q86WV6 whole entry R71H/G230A/H232R/R293Q): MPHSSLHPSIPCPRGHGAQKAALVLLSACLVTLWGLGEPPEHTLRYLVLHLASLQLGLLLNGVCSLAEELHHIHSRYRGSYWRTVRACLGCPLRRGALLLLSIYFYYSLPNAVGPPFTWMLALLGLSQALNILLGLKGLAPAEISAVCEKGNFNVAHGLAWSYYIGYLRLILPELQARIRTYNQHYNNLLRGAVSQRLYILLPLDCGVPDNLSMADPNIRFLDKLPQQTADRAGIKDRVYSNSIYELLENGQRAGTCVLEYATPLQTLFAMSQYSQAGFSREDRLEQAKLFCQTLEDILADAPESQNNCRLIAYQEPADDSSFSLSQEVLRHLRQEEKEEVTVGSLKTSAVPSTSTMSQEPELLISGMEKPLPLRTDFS
In words: THP-1 competition assay with STING agonist 2′3′-RR-(A)(A) (IRF-3 luciferase reporter). It counts as cell-based.
Conditions: not given
As for the experimental part: The scaffold molecules and STING inhibitory compounds as described herein are assayed for their ability to inhibit the induction of STING dependent IFN-β production by an agonist compound in a competition assay. Relative induction of IRF-3 signaling in THP-1 cells (HAQ allele) was measured after stimulating the cells with a mix of a scaffold molecule (or any putative STING antagonist) titrated against a constant concentration of the STING agonist 2′3′-RR-(A)(A) in PB buffer (50 mM HEPES pH 7.5, 100 mM KCl, 3 mM MgCl2, 0.1 mM DTT, 85 mM sucrose, 0.2% BSA, 1 mM ATP, 0.1 mM GTP).
One day prior to performing the assay, THP-1 dual (Invivogen) reporter cells were plated at 500,000 cells/mL in 200 μL per well in a 96-well plate and differentiated overnight with 3 μg/mL phorbal myristate acetate in RPMI medium 1640 (4.5 g/L D-glucose, 2.383 g/L HEPES, 300 mg/L L-glutamine, 1.5 g/L sodium bicarbonate, 110 mg/L sodium pyruvate, 10% heat-inactivated fetal bovine serum, 1× penicillin/streptomycin, 0.1 mg/mL normocin).
On the day of the assay, the media was removed from the wells and replaced with 150 μL of fresh media. The titrations against 2′ 3′-RR-(A)(A) in a final volume of 100 μL were made as follows: two-fold dilutions (2,000 μM-3.9 μM) of the scaffold molecule into PB buffer containing 100 μM 2′3′-RR-(A)(A) for a final concentration of 50 μM 2′3′-RR-(A)(A). Compounds were tested in biological triplicate.
The cells were then stimulated with 25 μL of each titration for 30 minutes at 37° C. in a CO2 incubator. After stimulating, the cells were washed twice, first with 100 μL and then 150 μL of fresh media. After washing, 150 μL of media was added to each well and the cells were incubated for 17 hours overnight at 37° C. in a CO2 incubator.
To detect IRF-3 signaling, 50 μL of luciferase substrate (Invivogen QUANTI-Luc coelenterazine-based luminescence reagent reconstituted in 25 mL water) was added to 10 μL of supernatant from each well in a 96-well white opaque plate. Luminescence was measured using a SpectraMax M3 plate reader (Molecular Devices) and relative fold-induction was calculated as the values obtained from wells containing both the scaffold molecule and 2′3′-RR-(A)(A) divided by the values obtained from wells containing 2′3′-RR-(A)(A) alone. The average of the relative fold-induction was plotted against the log concentration of the antagonist. Agonist compounds 2′3′-RR-(G)(A) and RR-(A)(A) were run as controls in this assay (see FIGS. 2A and 2B).
The results are provided for control compounds in FIGS. 2A and 2B and scaffold molecules in FIGS. […]: 2′3′-SR-(3′OTBS-A)(2′F-A) (FIG. 3A, Comp. 6a), SR-(2′F-A)(2′OTBS-A) (FIG. 3B, Comp. 18a), RR-(2,6-DAP)(2,6-DAP) (FIG. 3C, Comp. 23), RS-(2,6-DAP)(2,6-DAP) (FIG. 3D, Comp. 23a), (6-O-propargyl-G)(G) (FIG. 3E, Comp. 25), RR-(2′F-ibG)(2′F-ibG) (FIG. 3F, Comp. 32), RR-(2′F-C)(2′F-A) (FIG. 3G, Comp. 37), RS-(2′F-C)(2′F-A) (FIG. 3H, Comp. 37a), 3′2′-RR-(ibG)(BzA) (FIG. 3I, Comp. 42), 3′2′-SS-(G)(A) (FIG. 3J, Comp. 43), dithio-3′2′-(2′OTBS-G)(3′OTBS-A) isomer 1 (FIG. 3K, Comp. 49, isomer 1), dithio-3′2′-(2′OTBS-G)(3′OTBS-A) isomer 2 (FIG. 3L, Comp. 49, isomer 2), Beta-L-SS-(A)(A) (FIG. 3M, Comp. 48), Beta-L-RS-(A)(A) (FIG. 3N, Comp. 48a), and Beta-L-RR-(A)(A) (FIG. 3O, Comp. 48b). Isomer 1 and 2 of Compound 49 are different isomers, and are each one of compound 49a, 49b, 49c or 49d.
`CC(C)(C)[Si](C)(C)O[C@@H]1[C@@H]2OP(=O)(S)OC[C@H]3O[C@@H](n4cnc5c(N)ncnc54)[C@H](OP(=O)(S)OC[C@H]2O[C@H]1n1cnc2c(=O)[nH]c(N)nc21)[C@@H]3O[Si](C)(C)C(C)(C)C` (single isomer, unassigned) [compound 49 isomer 2, dithio-3′2′-(2′OTBS-G)(3′OTBS-A) isomer 2] came in with a half-inhibitory concentration (IC50) of 420 µM.
Still for that read-out and setting: next, `CC(C)(C)[Si](C)(C)O[C@@H]1[C@@H]2O[P@](=O)(S)OC[C@H]3O[C@@H](n4cnc5c(N)ncnc54)[C@H](F)[C@@H]3O[P@@](=O)(S)OC[C@H]2O[C@H]1n1cnc2c(N)ncnc21` [Compound 18a, (2R,3R,3aR,5R,7aR,9R,10R,10aR,12S,14aR)-2,9-bis(6-amino-9H-purin-9-yl)-3-((tert-butyldimethylsilyl)oxy)-10-fluoro-5,12-dimercaptooctahydro-2H,7H-difuro[3,2-d:3′,2′-j][1,3,7,9]tetraoxa[2,8]diphosphacyclododecine 5,12-dioxide]: 2110 µM; `CC(C)(C)[Si](C)(C)O[C@@H]1[C@@H]2OP(=O)(S)OC[C@H]3O[C@@H](n4cnc5c(N)ncnc54)[C@H](OP(=O)(S)OC[C@H]2O[C@H]1n1cnc2c(=O)[nH]c(N)nc21)[C@@H]3O[Si](C)(C)C(C)(C)C` (single isomer, unassigned) [compound 49 isomer 1, dithio-3′2′-(2′OTBS-G)(3′OTBS-A) isomer 1]: 109 µM.

For the next test, the target named is T2, hSTING HAQ allele (Homo sapiens, UniProt Q86WV6, G230A/H232R/R293Q).
T2 construct: DNA encoding amino acids 140-379 (amino acid numbering corresponding to Swiss Prot Q86WV6); 6xHIS-SUMO (with TEV site) (N, cleaved yes); made in house; host or cells: Rosetta2 (DE3) E. coli
T2 sequence (Q86WV6 140-379 G230A/H232R/R293Q): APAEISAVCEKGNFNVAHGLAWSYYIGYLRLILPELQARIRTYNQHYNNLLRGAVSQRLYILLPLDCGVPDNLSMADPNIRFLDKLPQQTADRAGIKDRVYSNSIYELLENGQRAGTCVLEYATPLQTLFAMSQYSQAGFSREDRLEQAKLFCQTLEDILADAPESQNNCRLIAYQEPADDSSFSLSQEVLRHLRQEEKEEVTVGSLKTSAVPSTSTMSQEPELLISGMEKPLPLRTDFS
Kind of test: Differential scanning fluorometry (DSF) Tm shift with purified STING AA140-379. It counts as binding. As to conditions: DSF, ligand 1 mM, 1 mg/ml STING AA140-379; read-out: hSTING Tm Shift HAQ. An excerpt: DNA encoding amino acids 140-379 (amino acid numbering corresponding to Swiss Prot Q86WV6) was amplified from plasmids containing the full length sequence of human STING alleles via polymerase chain reaction with the following primers: forward […] (SEQ ID NO: 9) and reverse […] (SEQ ID NO: 10). STING variant alleles were assigned according to Yi, et al, (2013), PLoS One, 8(10), e77846 (DOI: 10.1371/journal.pone.0077846. PCR products were cloned into bacterial expression vector encoding a N-terminal hexa-histidine affinity tag (6×HIS) followed by a small ubiquitin-like modifier (SUMO) solubility sequence (Butt, et al, (2005) Protein expression and purification 43.1, 1-9) and tobacco etch virus protease cleavage site (TEV) using ligation independent cloning (Aslanidis, et al, (1990) Nucleic acids research, 18.20, 6069-6074).
Plasmids encoding 6×HIS-SUMO-TEV-STING amino acids 140-379 were transformed into Rosetta2 (DE3) E. coli cells (EMD Millipore) for protein expression. Cells were grown in lysogeny broth at 37° C. until a […] absorbance of 0.6 was reached. Cells were then transferred to 18° C. and protein expression was induced overnight by the addition of isopropyl β-D-1-thiogalactopyranoside to the media at a concentration of 0.25 mM. Cells were harvested by centrifugation at 6,000 times gravity for 10 minutes. Cell pellets were re-suspended on ice in a buffer containing 50 mM Tris hydrochloride (Tris-HCl) pH 7.5, 500 mM sodium chloride (NaCl), 20 mM imidazole, 10% glycerol, 1 mM tris(2-carboxyethyl)phosphine hydrochloride (TCEP) and protease inhibitor tablet (Pierce) (Buffer A). Cells were lysed using an S-450D sonifier (Emmerson industrial) on ice. Cell lysate was centrifuged at 15,000 times gravity for 30 minutes at 4° C. Soluble material was applied to nickel-nitrilotriacetic acid (Ni-NTA) coupled Sepharose CL-6B (Qiagen) for 1 hour with gentle rocking at 4° C. After transfer to a gravity flow poly-prep column (Bio-Rad), resin was washed extensively in buffer A. Protein was eluted from the column in a buffer containing 20 mM Tris-HCl pH 7.5, 150 mM NaCl, 300 mM imidazole, 10% glycerol and 0.5 mM TCEP. To remove the 6×HIS-SUMO tag eluted protein was mixed with TEV protease (Sigma) at a ratio of 1:250 (w:w) and dialyzed overnight against a buffer containing 20 mM Tris-HCl pH 7.5, 150 mM NaCl, 5 mM imidazole, 10% glycerol and 0.5 mM TCEP. TEV protease and 6×HIS-SUMO tags were depleted by the addition of Ni-NTA resin (Qiagen) to the sample, purified STING amino acids 140-379 was collected by removal of the resin using a poly-prep column STING AA140-379 was concentrated with a 10,000 Dalton molecular weight cutoff centrifuge concentrator (EMD Millipore) to a final concentration of approximately 10 mg/ml. Protein was aliquoted, flash frozen in liquid nitrogen and stored at −80° C. until use.
Differential scanning fluorometry (DSF) is a technique that measures the ability of ligands to bind to and stabilize purified proteins (Niesen, et al, (2007) Nature protocols 2.9, 2212-2221). The protein is heated in the presence of a dye that binds to and fluoresces in hydrophobic environments. The protein is thermally denatured by heating resulting in increased dye binding to the unfolded protein and fluorescence. The temperature midpoint (Tm) of a proteins denaturation is established by calculating the half maximal value of the denaturation curve. The temperature midpoint of the protein in the presence of a ligand is directly related to the affinity of the ligand for the protein and therefore its ability to stabilize the protein at higher temperatures.
DSF was performed in a 20 μL reaction comprising 20 mM Tris-HCl pH 7.5, 150 mM NaCl, 1:500 dilution of SYPRO Orange (Life Technologies), 1 mg/ml purified STING AA140-379 protein and ligand at a concentration of 1 mM. Wild type hSTING, HAQ allele hSTING and/or REF allele hSTING were used with scaffold molecules of the invention as listed in Table 2.
For orientation: Differential scanning fluorimetry follows unfolding on heating by fluorescence.
With `C#CCOc1nc(N)nc2c1ncn2[C@@H]1O[C@@H]2COP(=O)(O)O[C@H]3[C@@H](O)[C@H](n4cnc5c(OCC#C)nc(N)nc54)O[C@@H]3COP(=O)(O)O[C@H]2[C@H]1O` [compound 26, (2R,3R,3aS,7aR,9R,10R,10aS,14aR)-2,9-bis(2-amino-6-(prop-2-yn-1-yloxy)-9H-purin-9-yl)-3,5,10,12-tetrahydroxyoctahydro-2H,7H-difuro[3,2-d: 3′,2′-j][1,3,7,9]tetraoxa[2,8]diphosphacyclododecine 5,12-dioxide], the ΔTm at 1000 µM was determined as 5.4 °C.
For the compound `CC(C)C(=O)Nc1nc2c(ncn2[C@@H]2O[C@@H]3CO[P@](=O)(S)O[C@@H]4[C@H](O)[C@@H](CO[P@@](=O)(S)O[C@H]3[C@H]2O)O[C@H]4n2cnc3c(NC(=O)c4ccccc4)ncnc32)c(=O)[nH]1` [Compound 42a, dithio-[RP, SP]-cyclic-[ibG(3′,5′)p-BzA(2′,5′)p]], the ΔTm at 1000 µM is 4.2 °C.
On the same count and under the same terms, to `CC(C)C(=O)Nc1nc2c(ncn2[C@@H]2O[C@@H]3CO[P@@](=O)(S)O[C@H]4[C@@H](F)[C@H](n5cnc6c(=O)[nH]c(NC(=O)C(C)C)nc65)O[C@@H]4CO[P@](=O)(S)O[C@H]3[C@H]2F)c(=O)[nH]1` [Compound 32a, N,N′-(((2R,3R,3aR,5R,7aR,9R,10R,10aR,12S,14aR)-3,10-difluoro-5,12-dimercapto-5,12-dioxidooctahydro-2H,7H-difuro[3,2-d:3′,2′-j][1,3,7,9]tetraoxa[2,8]diphosphacyclododecine-2,9-diyl)bis(6-oxo-6,9-dihydro-1H-purine-9,2-diyl))bis(2-methylpropanamide)] belongs 9.9 °C.

The same test, now with this note: read-out: hSTING Tm Shift HAQ.
On to `CC(C)(C)[Si](C)(C)O[C@H]1[C@H]2O[P@](=O)(S)OC[C@H]3O[C@@H](n4cnc5c(N)ncnc54)[C@H](F)[C@@H]3O[P@](=O)(S)OC[C@H]1O[C@H]2n1cnc2c(N)ncnc21` [Compound 6, dithio-[RP, RP]-cyclic-[3′OTBS-A(2′,5′)p-2′F-A(3′,5′)p]], for which the ΔTm at 1000 µM came out at 18.1 °C.
Still for that read-out and setting: next, `CC(C)(C)[Si](C)(C)O[C@H]1[C@H]2O[P@](=O)(S)OC[C@H]3O[C@@H](n4cnc5c(N)nc(N)nc54)[C@H](O)[C@@H]3O[P@](=O)(S)OC[C@H]1O[C@H]2n1cnc2c(N)ncnc21` [Compound 12, dithio-[RP, RP]-cyclic-[A(2′,5′)p-2,6-DAP(3′,5′)p]]: 14.3 °C.
The same measure, in the same setting: to `CC(C)(C)[Si](C)(C)O[C@H]1[C@H]2O[P@@](=O)(S)OC[C@H]3O[C@@H](n4cnc5c(N)nc(N)nc54)[C@H](O)[C@@H]3O[P@](=O)(S)OC[C@H]1O[C@H]2n1cnc2c(N)ncnc21` [Compound 12a, dithio-[SP, RP]-cyclic-[A(2′,5′)p-2,6-DAP(3′,5′)p]] belongs 14.5 °C.

For the origin of these results see US20180369268A1, “METHODS FOR IDENTIFYING INHIBITORS OF "STIMULATOR OF INTERFERON GENE"- DEPENDENT INTERFERON PRODUCTION” (ADURO BIOTECH, INC., priority 2015, published 2018).
